Activity calls are given as the source filed them. No cut-off for these calls is given here.
Experiments:
Assay type in all cases: functional, organism-based
[1] = tested on: Rattus norvegicus; assay: Ratio of ovulated rats to total number of rats determined in a anti-ovulatory assay by administering 2.5 microg of compound; 0/8
[2] = tested on: Rattus norvegicus; assay: Ratio of ovulated rats to total number of rats determined in a anti-ovulatory assay by administering 1 microg of compound; 3/8
[3] = tested on: Rattus norvegicus; assay: Ratio of ovulated rats to total number of rats determined in a anti-ovulatory assay by administering 5 microg of compound; 2/8
[4] = tested on: Rattus norvegicus; assay: Ratio of ovulated rats to total number of rats determined in a anti-ovulatory assay by administering 0.5 microg of compound; 9/11
[5] = tested on: Rattus norvegicus; assay: Ratio of ovulated rats to total number of rats determined in a anti-ovulatory assay by administering 1 microg of compound; 6/17
[6] = tested on: Rattus norvegicus; assay: Ratio of ovulated rats to total number of rats determined in a anti-ovulatory assay by administering 2.5 microg of compound; 0/4
[7] = tested on: Rattus norvegicus; assay: Ratio of ovulated rats to total number of rats determined in a anti-ovulatory assay by administering 1 microg of compound; 3/3
[8] = tested on: Rattus norvegicus; assay: Ratio of ovulated rats to total number of rats determined in a anti-ovulatory assay by administering 10 microg of compound; 7/8
[9] = tested on: Rattus norvegicus; assay: Ratio of ovulated rats to total number of rats determined in a anti-ovulatory assay by administering 25 microg of compound; 0/8
[10] = tested on: Rattus norvegicus; assay: Ratio of ovulated rats to total number of rats determined in a anti-ovulatory assay by administering 250 microg of compound; 2/2
[11] = tested on: Rattus norvegicus; assay: Ratio of ovulated rats to total number of rats determined in a anti-ovulatory assay by administering 25 microg of compound; 4/8
[12] = tested on: Rattus norvegicus; assay: Ratio of ovulated rats to total number of rats determined in a anti-ovulatory assay by administering 10 microg of compound; 8/8
[13] = tested on: Rattus norvegicus; assay: Ratio of ovulated rats to total number of rats determined in a anti-ovulatory assay by administering 2.5 microg of compound; 5/5
[14] = tested on: Rattus norvegicus; assay: Ratio of ovulated rats to total number of rats determined in a anti-ovulatory assay by administering 5 microg of compound; 0/8
[15] = tested on: Rattus norvegicus; assay: Ratio of ovulated rats to total number of rats determined in a anti-ovulatory assay by administering 10 microg of compound; 1/8
[16] = tested on: Rattus norvegicus; assay: Ratio of ovulated rats to total number of rats determined in a anti-ovulatory assay by administering 2.5 microg of compound; 8/8
[17] = tested on: Rattus norvegicus; assay: Ratio of ovulated rats to total number of rats determined in a anti-ovulatory assay by administering 1 ug of compound; 2/8
[18] = tested on: Rattus norvegicus; assay: Ratio of ovulated rats to total number of rats determined in a anti-ovulatory assay by administering 5 microg of compound; 1/8
[19] = tested on: Rattus norvegicus; assay: Ratio of ovulated rats to total number of rats determined in a anti-ovulatory assay by administering 2.5 microg of compound; 2/8
[20] = tested on: Rattus norvegicus; assay: Ratio of ovulated rats to total number of rats determined in a anti-ovulatory assay by administering 2.5 microg of compound; 1/7
[21] = tested on: Rattus norvegicus; assay: Ratio of ovulated rats to total number of rats determined in a anti-ovulatory assay by administering 1.0 microg of compound; 3/4
[22] = tested on: Rattus norvegicus; assay: Ratio of ovulated rats to total number of rats determined in a anti-ovulatory assay by administering 5 microg of compound; 0/4
[23] = tested on: Rattus norvegicus; assay: Ratio of ovulated rats to total number of rats determined in a anti-ovulatory assay by administering 1 microg of compound; 5/8
[24] = tested on: Rattus norvegicus; assay: Ratio of ovulated rats to total number of rats determined in a anti-ovulatory assay by administering 10 microg of compound; 0/8
[25] = tested on: Rattus norvegicus; assay: Ratio of ovulated rats to total number of rats determined in a anti-ovulatory assay by administering 5 microg of compound; 5/8
[26] = tested on: Rattus norvegicus; assay: Ratio of ovulated rats to total number of rats determined in a anti-ovulatory assay by administering 2.5 microg of compound; 0/7
[27] = tested on: Rattus norvegicus; assay: Ratio of ovulated rats to total number of rats determined in a anti-ovulatory assay by administering 1 ug of compound; 3/3
[28] = tested on: Rattus norvegicus; assay: Ratio of ovulated rats to total number of rats determined in a anti-ovulatory assay by administering 250 microg of compound; 3/3

In the case of `CC(=O)Nc1ccc(C[C@H](NC(=O)[C@H](CO)NC(=O)[C@@H](Cc2cccnc2)NC(=O)[C@@H](Cc2ccc(Cl)cc2)NC(=O)[C@@H](Cc2ccc3ccccc3c2)NC(C)=O)C(=O)N[C@H](Cc2ccc(NC(C)=O)cc2)C(=O)N[C@@H](CC(C)C)C(=O)N[C@@H](CCCCNC(C)C)C(=O)N2CCC[C@@H]2C(=O)N[C@H](N)C(N)=O)cc1`, the ov. rat/total [1] is reported as “Active” and the ov. rat/total [2] is reported as “Partially active”.
With `CC(=O)Nc1ccc(C[C@H](NC(=O)[C@@H](NC(=O)CO)NC(=O)[C@@H](Cc2cccnc2)NC(=O)[C@@H](Cc2ccc(Cl)cc2)NC(=O)[C@@H](Cc2ccc3ccccc3c2)NC(C)=O)C(=O)N[C@H](Cc2ccc(NC(C)=O)cc2)C(=O)N[C@@H](CC(C)C)C(=O)N[C@@H](CCCCNC(C)C)C(=O)N2CCC[C@@H]2C(=O)N[C@H](C)C(N)=O)cc1` (single isomer, unassigned) the ov. rat/total [3] was “Partially active”.
In the case of `CC(=O)Nc1ccc(C[C@H](NC(=O)[C@H](CO)NC(=O)[C@@H](Cc2cccnc2)NC(=O)[C@@H](Cc2ccc(Cl)cc2)NC(=O)[C@@H](Cc2ccc3ccccc3c2)NC(C)=O)C(=O)N[C@H](Cc2ccc(NC(C)=O)cc2)C(=O)N[C@@H](CC(C)C)C(=O)N[C@@H](CCCCNC(C)C)C(=O)N2CCC[C@@H]2C(=O)N[C@H](NC=O)C(N)=O)cc1` (single isomer, unassigned), the ov. rat/total [4] is reported as “inactive” and the ov. rat/total [5] is reported as “Partially active”.
`CC(=O)Nc1ccc(C[C@H](NC(=O)[C@H](CO)NC(=O)[C@@H](Cc2cccnc2)NC(=O)[C@@H](Cc2ccc(Cl)cc2)NC(=O)[C@@H](Cc2ccc3ccccc3c2)NC(C)=O)C(=O)N[C@H](Cc2ccc(NC(C)=O)cc2)C(=O)N[C@@H](CC(C)C)C(=O)N[C@@H](CCCCNC(C)C)C(=O)N2CCC[C@@H]2C(=O)N[C@@H](NC=O)C(N)=O)cc1` (single isomer, unassigned) was tested, and the ov. rat/total [6] was “Active” and the ov. rat/total [7] was “inactive”.
With `CC(=O)Nc1ccc(C[C@H](NC(=O)[C@H](CO)NC(=O)[C@@H](Cc2cccnc2)NC(=O)[C@@H](Cc2ccc(Cl)cc2)NC(=O)[C@H](NC(C)=O)N(C)C(=O)c2ccc3ccccc3c2)C(=O)N[C@H](Cc2ccc(NC(C)=O)cc2)C(=O)N[C@@H](CC(C)C)C(=O)N[C@@H](CCCCNC(C)C)C(=O)N2CCC[C@@H]2C(=O)N[C@H](C)C(N)=O)cc1` the ov. rat/total [8] was “inactive” and the ov. rat/total [9] was “Active”.
`CC(=O)Nc1ccc(C[C@H](NC(=O)[C@H](CO)NC(=O)[C@@H](Cc2cccnc2)NC(=O)[C@@H](NC(=O)c2cnccn2)NC(=O)[C@@H](Cc2ccc3ccccc3c2)NC(C)=O)C(=O)N[C@H](Cc2ccc(NC(C)=O)cc2)C(=O)N[C@@H](CC(C)C)C(=O)N[C@@H](CCCCNC(C)C)C(=O)N2CCC[C@@H]2C(=O)N[C@H](C)C(N)=O)cc1` was tested, and the ov. rat/total [10] was “inactive”.
`CC(=O)Nc1ccc(C[C@H](NC(=O)[C@H](CO)NC(=O)[C@@H](Cc2cccnc2)NC(=O)[C@@H](Cc2ccc(Cl)cc2)NC(=O)[C@@H](Cc2ccc3ccccc3c2)NC(C)=O)C(=O)N[C@H](C(=O)N[C@@H](CC(C)C)C(=O)N[C@@H](CCCCNC(C)C)C(=O)N2CCC[C@@H]2C(=O)N[C@H](C)C(N)=O)N(C)C(=O)c2ccc(NC(C)=O)cc2)cc1` (mixture of isomers) was tested, and the ov. rat/total [11] was “Partially active” and the ov. rat/total [12] was “inactive”.
For `CC(=O)Nc1ccc(C[C@@H](NC(=O)[C@@H](NC(=O)c2ccc(NC(C)=O)cc2)NC(=O)[C@H](CO)NC(=O)[C@@H](Cc2cccnc2)NC(=O)[C@@H](Cc2ccc(Cl)cc2)NC(=O)[C@@H](Cc2ccc3ccccc3c2)NC(C)=O)C(=O)N[C@@H](CC(C)C)C(=O)N[C@@H](CCCCNC(C)C)C(=O)N2CCC[C@@H]2C(=O)N[C@H](C)C(N)=O)cc1`, the ov. rat/total [3] was “Partially active”.
`CC(=O)Nc1ccc(C[C@H](NC(=O)[C@H](CO)NC(=O)[C@@H](Cc2cccnc2)NC(=O)[C@@H](Cc2ccc(Cl)cc2)NC(=O)[C@H](NC(C)=O)NC(=O)c2ccc3ccccc3c2)C(=O)N[C@H](Cc2ccc(NC(C)=O)cc2)C(=O)N[C@@H](CC(C)C)C(=O)N[C@@H](CCCCNC(C)C)C(=O)N2CCC[C@@H]2C(=O)N[C@H](C)C(N)=O)cc1` was tested, and the ov. rat/total [13] was “inactive” and the ov. rat/total [14] was “Active”.
For `CC(=O)Nc1ccc(C[C@H](NC(=O)[C@H](NC(=O)[C@@H](Cc2cccnc2)NC(=O)[C@@H](Cc2ccc(Cl)cc2)NC(=O)[C@@H](Cc2ccc3ccccc3c2)NC(C)=O)N(C)C=O)C(=O)N[C@H](Cc2ccc(NC(C)=O)cc2)C(=O)N[C@@H](CC(C)C)C(=O)N[C@@H](CCCCNC(C)C)C(=O)N2CCC[C@@H]2C(=O)N[C@H](C)C(N)=O)cc1` (single isomer, unassigned), the ov. rat/total [15] was “Active” and the ov. rat/total [16] was “inactive”.
`CC(=O)Nc1ccc(C[C@H](NC(=O)[C@H](CO)NC(=O)[C@@H](Cc2cccnc2)NC(=O)[C@@H](Cc2ccc(Cl)cc2)NC(=O)[C@@H](NC(C)=O)N(C)C(=O)c2ccc3ccccc3c2)C(=O)N[C@H](Cc2ccc(NC(C)=O)cc2)C(=O)N[C@@H](CC(C)C)C(=O)N[C@@H](CCCCNC(C)C)C(=O)N2CCC[C@@H]2C(=O)N[C@H](C)C(N)=O)cc1` (single isomer, unassigned) was tested, and the ov. rat/total [17] was “Partially active” and the ov. rat/total [1] was “Active”.
In the case of `CC(=O)Nc1ccc(C[C@H](NC(=O)[C@H](CO)NC(=O)[C@@H](Cc2cccnc2)NC(=O)[C@@H](Cc2ccc(Cl)cc2)NC(=O)[C@@H](Cc2ccc3ccccc3c2)NC(C)=O)C(=O)N[C@H](Cc2ccc(NC(C)=O)cc2)C(=O)N[C@H](C(=O)N[C@@H](CCCCNC(C)C)C(=O)N2CCC[C@@H]2C(=O)N[C@H](C)C(N)=O)N(C)C(C)=O)cc1`, the ov. rat/total [18] is reported as “Active” and the ov. rat/total [19] is reported as “Partially active”.
With `CC(=O)Nc1ccc(C[C@H](NC(=O)[C@H](CO)NC(=O)[C@@H](Cc2cccnc2)NC(=O)[C@@H](Cc2ccc(Cl)cc2)NC(=O)[C@@H](Cc2ccc3ccccc3c2)NC(C)=O)C(=O)N[C@H](Cc2ccc(NC(C)=O)cc2)C(=O)N[C@@H](CC(C)C)C(=O)NC(NC(=O)CN=C(N)N)C(=O)N2CCC[C@@H]2C(=O)N[C@H](C)C(N)=O)cc1` (stereo partly drawn) the ov. rat/total [20] was “Active”, the ov. rat/total [21] was “inactive” and the ov. rat/total [22] was “Active”.
For `CC(=O)Nc1ccc(C[C@@H](NC(=O)[C@H](NC(=O)c2ccc(O)cc2)NC(=O)[C@H](CO)NC(=O)[C@@H](Cc2cccnc2)NC(=O)[C@@H](Cc2ccc(Cl)cc2)NC(=O)[C@@H](Cc2ccc3ccccc3c2)NC(C)=O)C(=O)N[C@@H](CC(C)C)C(=O)N[C@@H](CCCCNC(C)C)C(=O)N2CCC[C@@H]2C(=O)N[C@H](C)C(N)=O)cc1`, the ov. rat/total [1] was “Active” and the ov. rat/total [23] was “Partially active”.
With `CC(=O)Nc1ccc(C[C@H](NC(=O)[C@H](CO)NC(=O)[C@@H](Cc2cccnc2)NC(=O)[C@@H](Cc2ccc(Cl)cc2)NC(=O)[C@@H](Cc2ccc3ccccc3c2)NC(C)=O)C(=O)N[C@H](Cc2ccc(NC(C)=O)cc2)C(=O)N[C@@H](NC(C)=O)C(=O)N[C@@H](CCCCNC(C)C)C(=O)N2CCC[C@@H]2C(=O)N[C@H](C)C(N)=O)cc1` the ov. rat/total [24] was “Active” and the ov. rat/total [25] was “Partially active”.
With `CC(=O)Nc1ccc(C[C@H](NC(=O)[C@H](CO)NC(=O)[C@H](NC(=O)c2cccnc2)NC(=O)[C@@H](Cc2ccc(Cl)cc2)NC(=O)[C@@H](Cc2ccc3ccccc3c2)NC(C)=O)C(=O)N[C@H](Cc2ccc(NC(C)=O)cc2)C(=O)N[C@@H](CC(C)C)C(=O)N[C@@H](CCCCNC(C)C)C(=O)N2CCC[C@@H]2C(=O)N[C@H](C)C(N)=O)cc1` the ov. rat/total [26] was “Active” and the ov. rat/total [27] was “inactive”.
With `CC(=O)Nc1ccc(C[C@H](NC(=O)[C@H](CO)NC(=O)[C@@H](Cc2cccnc2)NC(=O)[C@H](NC(=O)c2cnccn2)NC(=O)[C@@H](Cc2ccc3ccccc3c2)NC(C)=O)C(=O)N[C@H](Cc2ccc(NC(C)=O)cc2)C(=O)N[C@@H](CC(C)C)C(=O)N[C@@H](CCCCNC(C)C)C(=O)N2CCC[C@@H]2C(=O)N[C@H](C)C(N)=O)cc1` (single isomer, unassigned) the ov. rat/total [28] was “inactive”.
`CC(=O)Nc1ccc(C[C@@H](NC(=O)[C@H](NC(=O)[C@H](CO)NC(=O)[C@@H](Cc2cccnc2)NC(=O)[C@@H](Cc2ccc(Cl)cc2)NC(=O)[C@@H](Cc2ccc3ccccc3c2)NC(C)=O)N(C)C(=O)c2ccc(NC(C)=O)cc2)C(=O)N[C@@H](CC(C)C)C(=O)N[C@@H](CCCCNC(C)C)C(=O)N2CCC[C@@H]2C(=O)N[C@H](C)C(N)=O)cc1` was tested, and the ov. rat/total [1] was “Active” and the ov. rat/total [23] was “Partially active”.

Reference: ChEMBL document CHEMBL1130231, “Betidamino acid scan of the GnRH antagonist acyline” (J Med Chem, 1997)
